Laboratory results as given in patent US8435586B2, “Use of alkoxylated flavones to intensify the sensory impression of alcohol” (Symrise AG, priority 2007, dated 2013).

System: expert panel
Assay: Tasting of ethanol and HMF-containing mixtures by an expert panel (5% sucrose solution)
Format: in vivo, human
Text: The test matrix used was a 5% sucrose solution having alcohol contents of 4 and 10% by volume respectively. Added to each of the two sucrose solutions were • a) nothing, • b) 2 ppm of HMF87 from Example 1, • c) 2 ppm of HMF99 from Example 1, • d) 5 ppm of HMF87 from Example 1 and • e) 5 ppm of HMF99 from Example 1.
All of these solutions were tasted by an expert panel consisting of five experts in each case.

Row | SMILES | intensification of the alcohol impression compared with the samples without HMF (2 or 5 ppm of HMF87 or HMF99, 4 and 10% by volume alcohol, five experts) | difference between HMF87 and HMF99 in intensification of the alcohol impression (2 and 5 ppm, 4 and 10% by volume alcohol)
1 | COc1ccc(-c2oc3c(OC)c(OC)c(OC)c(OC)c3c(=O)c2OC)cc1OC [HMF, 3,3′,4′,5,6,7,8-heptamethoxyflavone] | highly significant intensification of the alcohol impression | –
2 | COc1ccc(-c2oc3c(OC)c(OC)c(OC)c(OC)c3c(=O)c2OC)cc1OC [HMF99, 3,3′,4′,5,6,7,8-heptamethoxyflavone] | – | no significant difference
